Source: patent US20050042716A1, “Allergen inactivating method, allergen inactivating filter, air treating apparatus, virus inactivating agent, virus inactivating method, virus inactivating filter, air conditoning unit and air conditioner” (priority 2003, published 2005)

Key:
λ-phage = assay: Inactivation test of λ-phage in solution (plaque count on E. coli XL1-Blue MRF′); type: cell-based
M13 phage = assay: Inactivation test of M13 phage in solution (plaque count on E. coli JM109); type: cell-based; conditions: 9 M urea, 1 hour
Procedure: This solution was added in the 1.5 mL volume tube to prepare a protease treatment solution. […] This solution was added in the 1.5 mL volume tube to prepare an urea treatment solution. […] This solution was added in the 1.5 mL volume tube to prepare an urea/protease treatment solution. Each solution was incubated at 37° C. for 1 hour. After the incubation, 600 μL of PEG solution (20% PEG6000, 2.5M NaCl) was added, and the solution was allowed to stand in ice for 3 hours. […] After incubating the medium at 37° C. for 5 hours, the number of the plaques appeared was counted to determine pfu. […] Into this solution in the 1.5 mL volume tube, 0, 0.08, 0.8 and 8 μL each of pfu protease (manufactured by Takara Bio Co.) solution was added. […] Into this solution in the 1.5 mL volume tube, 0, 0.08, 0.8 and 8 μL each of pfu protease (manufactured by Takara Bio Co.) solution was added. […] Each treatment solution was incubated at 37° C. for 1 hour. After the incubation, 600 μL of PEG solution (20% PEG6000, 2.5M NaCl) was added, and the solution was allowed to stand in ice for 3 hours. […] After incubating the medium at 37° C. for 5 hours, the number of the plaques appeared was counted to determine pfu. […] After the incubation, 600 μL of PEG solution (20% PEG, 2.5M NaCl) was added, and the solution was allowed to stand in ice for 3 hours. […] After incubating the medium at 37° C. for 5 hours, the number of the plaques appeared was counted to determine pfu for evaluating the infection ability. The inactivation ratio of M13 phage was calculated from the results in Table 10, and is shown in the graph in FIG.

mite allergen = assay: Mite allergen inactivation in mite extract, detected with DaniScan; type: biochemical
cedar extract = assay: Electrophoresis of treated cedar extract (protein staining); type: biochemical
cedar antigen Cryj-1 = cedar antigen Cryj-1 (Cryptomeria japonica, UniProt P18632); assay: Electrophoresis of treated cedar antigen Cryj-1; type: biochemical; conditions: 10 μL 5 N HCL per 10 μL Cj-1 solution, 60° C., 60 minutes
Sequence of cedar antigen Cryj-1 (P18632 22-374): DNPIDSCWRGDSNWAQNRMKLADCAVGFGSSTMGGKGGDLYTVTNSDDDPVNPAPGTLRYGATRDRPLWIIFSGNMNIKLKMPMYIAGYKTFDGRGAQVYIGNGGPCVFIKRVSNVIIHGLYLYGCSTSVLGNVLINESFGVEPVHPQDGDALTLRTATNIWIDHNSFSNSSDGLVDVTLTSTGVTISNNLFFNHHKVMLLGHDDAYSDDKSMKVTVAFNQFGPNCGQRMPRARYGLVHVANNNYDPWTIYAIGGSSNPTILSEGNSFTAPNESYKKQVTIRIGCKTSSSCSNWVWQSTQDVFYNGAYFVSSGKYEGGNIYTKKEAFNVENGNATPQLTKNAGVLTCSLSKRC

cedar antigen Cryj-2 = cedar antigen Cryj-2 (Cryptomeria japonica, UniProt P43212); assay: Electrophoresis of treated cedar antigen Cryj-2; type: biochemical; conditions: 10 μL 5 N HCL per 10 μL Cj-2 solution, 60° C., 60 minutes
Sequence of cedar antigen Cryj-2 (P43212 46-433): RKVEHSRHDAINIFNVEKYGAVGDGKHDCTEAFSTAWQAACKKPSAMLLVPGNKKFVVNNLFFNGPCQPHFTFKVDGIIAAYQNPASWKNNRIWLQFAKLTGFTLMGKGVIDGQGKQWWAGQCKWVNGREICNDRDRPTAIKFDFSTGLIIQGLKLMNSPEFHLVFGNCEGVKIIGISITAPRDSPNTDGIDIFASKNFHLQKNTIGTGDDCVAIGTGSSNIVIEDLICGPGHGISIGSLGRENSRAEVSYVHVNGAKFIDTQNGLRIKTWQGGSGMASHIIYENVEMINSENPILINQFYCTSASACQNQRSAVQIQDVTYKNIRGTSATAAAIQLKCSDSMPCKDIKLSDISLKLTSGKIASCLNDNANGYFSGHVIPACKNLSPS

Cj-1 allergen = Cj-1 allergen (Cryptomeria japonica, UniProt P18632); assay: Electrophoresis and Western blotting with Cj-1 antibody; type: biochemical, cedar; conditions: for denaturation of Cj-1 protein (Western band): 5 N HCl, 60° C., 60 minutes
Sequence of Cj-1 allergen (P18632 22-374): as the sequence (P18632 22-374) above

[1] = 37° C., 1 hour, pfu protease S final 2%, 9 M urea

## NC(N)=O [Urea, urea]
λ-phage; 3 M urea, 37° C., treatment time 0 min
  Infection ability of λ-phage: 9.4 × 10^7 pfu/ml
λ-phage; 3 M urea, 37° C., treatment time 15 min
  Infection ability of λ-phage: 1.5 × 10^8 pfu/ml
λ-phage; 3 M urea, 37° C., treatment time 60 min
  Infection ability of λ-phage: 1.1 × 10^8 pfu/ml
λ-phage; 3 M urea, irrespective of the treatment time
  inactivation of λ-phage (in words): not substantially inactivated
λ-phage; 9 M urea, 37° C., treatment time 0 min
  Infection ability of λ-phage: 4 × 10^6 pfu/ml
λ-phage; 9 M urea, 37° C., treatment time 0 min (Table 6)
  Infection ability of λ-phage by adding 9 M urea: 8.4 × 10^5 pfu/mL
λ-phage; 9 M urea, 37° C., treatment time 7.5 min
  Infection ability of λ-phage by adding 9 M urea: 0 pfu/mL
λ-phage; 9 M urea, 37° C., treatment time 15 min
  Infection ability of λ-phage: 0 pfu/ml
λ-phage; 9 M urea, 37° C., treatment time 15 min (Table 6)
  Infection ability of λ-phage by adding 9 M urea: 0 pfu/mL
λ-phage; 9 M urea, 37° C., treatment time 30 min
  Infection ability of λ-phage by adding 9 M urea: 0 pfu/mL
λ-phage; 9 M urea, 37° C., treatment time 60 min
  Infection ability of λ-phage: 0 pfu/ml
λ-phage; 9 M urea, 37° C., treatment time 60 min (Table 6)
  Infection ability of λ-phage by adding 9 M urea: 0 pfu/mL
λ-phage; 9 M urea, treatment time of 15 minutes or more
  inactivation of λ-phage (in words): completely inactivated
λ-phage; [1]
  Infection ability of λ-phage: 0 pfu/mL
  inactivation of λ-phage (in words): inactivated
λ-phage; immediately after contacting 9 M urea
  inactivation ratio of λ-phage: about 99.96%
M13 phage; 37° C.
  inactivation ratio of M13 phage: about 50%
M13 phage; protease concentration 0, 37° C.
  Infection ability of M13 phage: 6.3 × 10^9
M13 phage; 37° C., pfu protease S final 2%
  Infection ability of M13 phage: 1.1 × 10^10 pfu/mL

## Cl [acid, hydrochloric acid]
Mite allergen; 2.5 M hydrochloric acid, 60° C., 60 minutes
  mite allergen inactivation (DaniScan band): most of the allergen is inactivated
Cedar extract; 10 μL 5 N HCL per 10 μL cedar preparation, 60° C., 60 minutes
  denaturation of cedar proteins (bands): most of the proteins derived from cedar was denatured
Cedar antigen Cryj-1
  denaturation of Cj-1 protein (bands): most of the cedar allergen Cj-1 protein was denatured
Cedar antigen Cryj-2
  denaturation of Cj-2 protein (bands): most of the cedar allergen Cj-2 protein was denatured
Cj-1 allergen; Cj-1 solution
  denaturation of Cj-1 protein (Western band): most of the cedar antigen Cj-1 protein was denatured
Cj-1 allergen; cedar extract
  denaturation of Cj-1 protein (Western band): most of the cedar antigen Cj-1 protein was denatured

## [Na+].[OH-] [alkali, sodium hydroxide]
Mite allergen; 2.5 M sodium hydroxide, 40° C. and 60° C., 10 minutes
  mite allergen inactivation (DaniScan band): inactivated

B1: papain: purified edible papain manufactured by Nagase Chemtechs Co. (protein, UniProt P00784 134-345, looked up)
Papain: IPEYVDWRQKGAVTPVKNQGSCGSCWAFSAVVTIEGIIKIRTGNLNEYSEQELLDCDRRSYGCNGGYPWSALQLVAQYGIHYRNTYPYEGVQRYCRSREKGPYAAKTDGVRQVQPYNEGALLYSIANQPVSVVLEAAGKDFQLYRGGIFVGPCGNKVDHAVAAVGYGPNYILIKNSWGTGWGENGYIRIKRGTGNSYGVCGLYTSSFYPVKN
Cedar extract; 3 μL (0.2 g/mL) papain solution, 40° C., 15 minutes
  decomposition of cedar proteins (bands): most of the cedar proteins had been decomposed
Cj-1 allergen; cedar extract, 3 μL (0.2 g/mL) papain, 40° C., 15 minutes
  inactivation of Cj-1 allergen (Western band): completely inactivated
